Assay results published in ChEMBL document CHEMBL1201862, “PubChem BioAssay data set” (2004).
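Where inhibition never reached the appropriate level, the endpoint shown equals the highest concentration tested. Otherwise, values were interpolated linearly from a five-concentration, 48-hour dose response in 96-well plates. Abbreviation: GI50, concentration required for 50% inhibition of growth.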 Active and inactive are the calls of the source. Rule as the data show it: active = GI50 up to about 1.1 µM and inactive = higher.

What was measured:
Experiment in all cases: NCI tumour cell line growth inhibition, 48 h
HCT-116 = tested on: HCT-116
MOLT-4 = tested on: MOLT-4
EKVX = tested on: EKVX
IGROV-1 = tested on: IGROV-1
OVCAR-8 = tested on: OVCAR-8
UACC-257 = tested on: UACC-257
K562 = tested on: K562
RXF 393 = tested on: RXF 393
HCC 2998 = tested on: HCC 2998
NCI-H226 = tested on: NCI-H226
RPMI-8226 = tested on: RPMI-8226
TK-10 = tested on: TK-10
786-0 = tested on: 786-0
OVCAR-5 = tested on: OVCAR-5
SNB-75 = tested on: SNB-75
OVCAR-4 = tested on: OVCAR-4
NCI-H522 = tested on: NCI-H522
SK-OV-3 = tested on: SK-OV-3

Measured: GI50

O=c1/c(=C/c2ccccc2O)sc2nc3ccccc3n12
inactive: HCT-116 47.3 µM | MOLT-4 18.1 µM | EKVX 15.3 µM | IGROV-1 16.9 µM | OVCAR-8 45 µM | UACC-257 62.7 µM | K562 33.6 µM | RXF 393 21.9 µM | HCC 2998 55.8 µM | NCI-H226 52.1 µM | RPMI-8226 21.2 µM | TK-10 > 100 µM | 786-0 53.2 µM | OVCAR-5 > 100 µM | SNB-75 84.9 µM | OVCAR-4 80.4 µM

COC(=O)C1CCc2nnc(-c3ccccc3)n21 (stereo unspecified)
inactive: HCT-116 > 100 µM | MOLT-4 > 100 µM | EKVX > 100 µM | IGROV-1 > 100 µM | OVCAR-8 > 100 µM | UACC-257 > 100 µM | K562 > 100 µM | RXF 393 > 100 µM | HCC 2998 > 100 µM | NCI-H226 > 100 µM | RPMI-8226 > 100 µM | TK-10 > 100 µM | 786-0 > 100 µM | OVCAR-5 > 100 µM | SNB-75 > 100 µM | NCI-H522 > 100 µM | OVCAR-4 > 100 µM

COC(=O)C(=O)C(C(C)=O)C(=O)NCc1ccc(OC)c(OC)c1 (stereo unspecified)
inactive: HCT-116 > 100 µM | MOLT-4 > 100 µM | EKVX > 100 µM | IGROV-1 > 100 µM | OVCAR-8 > 100 µM | UACC-257 > 100 µM | K562 > 100 µM | RXF 393 78.5 µM | HCC 2998 > 100 µM | NCI-H226 > 100 µM | SK-OV-3 > 100 µM | TK-10 > 100 µM | 786-0 > 100 µM | OVCAR-5 > 100 µM | SNB-75 > 100 µM | NCI-H522 > 100 µM | OVCAR-4 > 100 µM

O=c1nc(/C=C/c2ccccc2Cl)cc2n1CCN2CCO
inactive: HCT-116 > 100 µM | MOLT-4 75.9 µM | EKVX > 100 µM | IGROV-1 > 100 µM | OVCAR-8 > 100 µM | K562 90.2 µM | RXF 393 95.1 µM | NCI-H226 97.9 µM | RPMI-8226 > 100 µM | SK-OV-3 43.8 µM | TK-10 > 100 µM | 786-0 > 100 µM | OVCAR-5 > 100 µM | SNB-75 26.3 µM | NCI-H522 24.3 µM | OVCAR-4 80.2 µM

COc1nc2c(nc(N)n2C2OCC(O)C(O)C2O)c(=O)n1C (stereo unspecified)
inactive: HCT-116 > 100 µM | MOLT-4 > 100 µM | EKVX > 100 µM | IGROV-1 > 100 µM | OVCAR-8 > 100 µM | UACC-257 > 100 µM | K562 > 100 µM | RXF 393 > 100 µM | HCC 2998 > 100 µM | NCI-H226 > 100 µM | SK-OV-3 > 100 µM | TK-10 > 100 µM | 786-0 > 100 µM | SNB-75 > 100 µM | NCI-H522 > 100 µM | OVCAR-4 > 100 µM

COC(=O)CCSC(=O)Nc1ccc(/N=N/c2ccccc2)cc1
inactive: HCT-116 59.3 µM | MOLT-4 27.2 µM | EKVX 39.5 µM | IGROV-1 56.9 µM | OVCAR-8 45.8 µM | UACC-257 56.5 µM | K562 45.8 µM | RXF 393 > 100 µM | HCC 2998 23.6 µM | NCI-H226 60.4 µM | RPMI-8226 49.1 µM | SK-OV-3 > 100 µM | TK-10 61.8 µM | 786-0 57.7 µM | OVCAR-5 71.1 µM | SNB-75 31 µM | OVCAR-4 30.4 µM

CC1(C)OC2C(=O)OC(COCc3ccccc3)C2O1 (stereo unspecified)
inactive: HCT-116 > 100 µM | MOLT-4 > 100 µM | EKVX > 100 µM | IGROV-1 > 100 µM | OVCAR-8 > 100 µM | UACC-257 > 100 µM | K562 > 100 µM | RXF 393 > 100 µM | HCC 2998 > 100 µM | NCI-H226 > 100 µM | RPMI-8226 > 100 µM | TK-10 > 100 µM | 786-0 > 100 µM | OVCAR-5 > 100 µM | SNB-75 > 100 µM | OVCAR-4 > 100 µM

CN/N=C(\C(=O)Nc1ccc(C(F)(F)F)cc1[N+](=O)[O-])C(c1cnc2ccc([N+](=O)[O-])cc2n1)[N+](=O)[O-] (stereo unspecified)
inactive: HCT-116 41.4 µM | MOLT-4 14.8 µM | EKVX 6.71 µM | IGROV-1 > 100 µM | OVCAR-8 59 µM | UACC-257 44.5 µM | K562 8.79 µM | RXF 393 30.1 µM | HCC 2998 49.5 µM | NCI-H226 17.9 µM | RPMI-8226 38.2 µM | SK-OV-3 > 100 µM | 786-0 32.4 µM | OVCAR-5 22.9 µM | NCI-H522 6.84 µM | OVCAR-4 > 10 µM
